Source: US4183930A, “Amino derivatives of pyrazolo [1,5-a]s-triazine, and their therapeutic applications” (Aron S.A., priority 1978, dated 1980)
Like-named read-outs stand apart in the source and are kept apart here.

Key:
[1] = tested on: isolated trachea of guinea-pigs; assay: Dilatation of the isolated trachea of guinea-pigs (Castillo & De Beer); parameters: species or system guinea-pig; details: 10 γ/ml, tensile load 500 mg; for % dilatation (tensile variation with respect to the activity of theophylline taken as 100%): relative to theophylline = 100%
Procedure: (a) Action on the isolated trachea of guinea-pigs The trachea is prepared according to the technique disclosed by Castillo & De Beer (J. Pharmacol. Exper. […] The organ is submitted to a tensile load of 500 mg.

[2] = tested on: anaphylactic shock in mice; assay: Protective effect against anaphylactic shock in mice; format: in vivo, mouse; details: 100 mg/kg i.p., 30 min prior to albumin; for responders at 100 mg/kg: Mus musculus, ip, 0.5 h, read-out: % surviving animals; for Number of dead animals: dead/total
Procedure: (a) Protective effect against anaphylactic shock in mice
The protective effect against anaphylactic shock was investigated according to the technique disclosed by Duhault and co-workers (Arzneim. Forschung, 1972, II, 1947). Four weeks after sensitization to bovine albumin, intravenous injection of 0.3 mg bovine albumin in mice causes a fatal anaphylactic shock within the 30 minutes which follow said injection.
The protective effect of compounds of the formula (I), on intraperitoneal administration, at a dosage of 100 mg/kg 30 minutes prior to albumin injection is illustrated in Table III.

[3] = tested on: bronchospasm induced by acetylcholine, serotonine and histamine; assay: Prevention of bronchospasm in anesthetized guinea-pigs (Konzett and Rossler); format: in vivo, guinea-pig; details: Cavia porcellus, iv, spasm by acetylcholine (10-20 γ/kg i.v.), serotonine (5 γ/kg i.v.) and histamine (10 γ/kg i.v.), read-out: ED100 (dosage providing 100% inhibition of the spasm)
rats = assay: Chronic toxicity in rats, orally, 3 months; format: in vivo, rat; details: 3 months, 25, 100 and 300 mg/kg
mice [4] = details: mouse, in vivo
in vivo = details: mouse
[5] = tested on: passive cutaneous anaphylaxis in rats; assay: Protective effect against passive cutaneous anaphylaxis (PCA) in rats; format: in vivo; details: Rattus norvegicus, ip, 100 mg/kg i.p., 30 min prior to ovalbumin injection, read-out: % Protection (with respect to the controls)
Procedure: (b) Protective effect against passive cutaneous anaphylaxis in rats
The protective effect against passive cutaneous anaphylaxis (PCA) in rats were investigated according to the technique disclosed by Rosenthale and co-workers (J. Pharm. Exp. Therap. 1976, 197, 725-733). Antisera were prepared by sub-cutaneous injection of 1 mg/ml ovalbumin and by intraperitoneal injection of b 30×10^9 /ml Bacillus pertussis. The PCA reaction was visualized on intravenous injection of antigen (ovalbumin) and Evans Blue in rats which had been intradermally administered the antiserum (4 injections in the shaved back of each rat) 72 hours previously. The protective effect obtained on intraperitoneal administration of the compounds at a dosage of 100 mg/kg 30 minutes prior to ovalbumin injection is set forth in Table IV.
To determine the percent protection, the length of the longest diameter o
the spot and the length of the diameter perpendicular thereto are
measured. The product is expressed as mm^2.

humans = assay: First clinical tests in humans; format: in vivo, human
From the text: The first clinical tests provided the following data:
(2) In clinical pharmacology, functional respiratory exploration determinations provided the same bronchodilator effect found in animals.

dogs = assay: Chronic toxicity in dogs, 1 month; format: in vivo, dog; details: 20 and 160 mg/kg
mice [6] = assay: Acute toxicity in mice; details: dosage 1000 mg/kg
[7] = Series 2 (controls 50% surviving)
[8] = Series 3 (controls 25% surviving)
[9] = Series 4 (controls 30% surviving)

Compound | Tensile variation [1] [mg] | % dilatation (tensile variation with respect to the activity of theophylline taken as 100%) [1] [%] | ED100 [3] [mg/kg] | LD50 (in vivo; po) [mg/kg] | inhibition in vivo at 100 mg/kg [5] [%] | further results
Nc1nc(N)n2nccc2n1 [Example 1, 2,4-Diamino-pyrazolo[1,5-a]s.triazine] | -60 | 67 | 20 to 25 | 1250 | 42 | responders at 100 mg/kg ([2]; Series 1 (controls 20% surviving)): 50%; Number of dead animals ([2]; mice sensitized to bovine albumin, Series 1 (controls 16/20)): 10/20; alteration of the biological constants / histological injury of the various organs (rats): neither alteration of the biological constants nor histological injury of the various organs; Number of dead animals at the dosage indicated, i.v. (mice [4]): no; tolerance in humans (humans): good tolerance
Cc1cc2nc(N)nc(N)n2n1 [Example 2, 2,4-Diamino-7-methyl-pyrazolo[1,5-a]s.triazine] | -100 | 111 | 15 to 20 | 900 | 56 | Number of dead animals ([2]; Series 2 (controls 10/20)): 2/21; responders at 100 mg/kg [2, 7]: 90.5%; alteration of the biological constants / histological injury of the various organs (dogs): neither alteration of the biological constants nor histological injury of the various organs; alteration of the biological constants / histological injury of the various organs (rats): neither alteration of the biological constants nor histological injury of the various organs; LD50 (in vivo; iv): 380 mg/kg; tolerance in humans (humans): good tolerance
CCc1nn2c(N)nc(N)nc2c1C [Example 3, 2,4-Diamino-7-ethyl-8-methyl-pyrazolo[1,5-a]s.triazine] | -100 | 111 |  | 200 | 92 | Number of dead animals ([2]; Series 3 (controls 15/20)): 6/19; responders at 100 mg/kg [2, 8]: 68.5%
CNc1nc(N)nc2cc(C)nn12 [Example 4, 2-Amino-4-methylamino-7-methyl-pyrazolo[1,5-a]s.triazine] | -153 | 170 |  |  | 92 | Number of dead animals ([2]; Series 3 (controls 15/20)): 9/20; responders at 100 mg/kg [2, 8]: 55%; alteration of the biological constants / histological injury of the various organs (rats): neither alteration of the biological constants nor histological injury of the various organs; LD50 p.o. (mice [4]; po): 1000 mg/kg; LD50 (in vivo; iv): 300 mg/kg; tolerance in humans (humans): good tolerance
CNc1nc(NC)n2nc(C)cc2n1 [Example 5, 2,4-Bis-(methylamino)-7-methyl-pyrazolo[1,5-a]s.triazine] | -207 | 230 | 10 | 300 | 83 | 
Cc1cc2nc(N)nc(NC(C)C)n2n1 [Example 6, 2-amino-4-isopropylamino-7-methyl-pyrazolo[1,5-a]s.triazine methane sulfonate] | -200 | 220 | 5 |  |  | Number of dead animals ([2]; Series 3 (controls 15/20)): 12/20; responders at 100 mg/kg [2, 8]: 40%; Number of dead animals at the dosage indicated, p.o. (mice [4]): one
C=CCNc1nc(N)nc2cc(C)nn12 [Example 7, 2-Amino-4-allylamino-7-methyl-pyrazolo[1,5-a]s.triazine] | -180 | 200 | 5 | 1200 | 71 | Number of dead animals ([2]; Series 4 (controls 14/20)): 2/20; responders at 100 mg/kg [2, 9]: 90%; Number of dead animals at the dosage indicated, i.v. (mice [4]): no
Cc1cc2nc(N)nc(NCC3CCCO3)n2n1 (centres unmarked) [Example 8, 2-Amino-4-tetrahydrofurfurylamino-7-methyl-pyrazolo[1,5-a]s.triazine] | -72 | 80 |  |  | 54 | Number of dead animals ([2]; Series 4 (controls 14/20)): 6/21; responders at 100 mg/kg [2, 9]: 71%; Number of dead animals at the dosage indicated, p.o. (mice [4]): two
CCCNc1nc(N)nc2cc(C)nn12 [Example 9] |  |  |  |  | 69 | Number of dead animals at the dosage indicated, p.o. (mice [6]): one
Cc1cc2nc(N)nc(NC(C)(C)C)n2n1 [Example 10] |  |  |  |  | 50 | Number of dead animals at the dosage indicated, p.o. (mice [6]): one
C=CCNc1nc(N)nc2ccnn12 [Example 11] |  |  |  |  |  | Number of dead animals at the dosage indicated, p.o. (mice [6]): one
Cn1c(=O)c2[nH]cnc2n(C)c1=O [Theophylline, reference compound] | -90 |  | 20 to 25 |  | 72 | Number of dead animals ([2]; Series 2 (controls 10/20)): 4/20; responders at 100 mg/kg [2, 7]: 80%
